34 compounds from patent US5889013A, “Pyrimidine acyclonucleoside derivatives” (priority 1994, dated 1999) can be followed below.

One series relates to HIV-1 (HTLV-IIIB strain). Nature of the series: Inhibitory activity for HIV-induced cytopathogenicity (MT-4 cells, MTT method). It is filed as cell-based. Conditions: Human immunodeficiency virus 1, IIIB, MT4, 144 h, read-out: 50% inhibitory concentration of HIV infection. As to the method: (§1) In RPMI 1640 culture medium supplemented with 10% heat-inactivated fetal bovine serum, 2 mM of L-glutamine, 100 U/mL of penicillin G and 100 μg/mL of streptomycin, MT-4 cells (HTLV-1 transformed T4-cell line) at a concentration of 1×10^4 /well in a flat-bottom, microtiter plate were infected with 500 TCID50 of HIV-1 (HTLV-IIIB strain). Immediately after virus infection, sample serially diluted with culture medium from stock solution prepared in dimethyl sulfoxide was added to each well in quadriplicate. After 6 days incubation at 37° C., the viability of mock and HIV-infected cells was determined by the 3-(4,5-dimethylthiazol-2-yl)-2,5-diphenyltetrazolium bromide (MTT) method. And also, the cytotoxicity of sample to MT-4 cells not infected with HIV was assessed in parallel with its antiviral activity under the same way as above.
Background: Protection from cytopathic effect is a common read-out in antiviral testing.

Series [1] can be described thus: Cytotoxicity to MT-4 cells not infected with HIV (MTT method). The conditions noted are these: human; MT-4 cells not infected with HIV, 6 days, 37° C., MTT; read-out: 50% cytotoxic concentration to MT-4 cells. Type of series: cell-based. On the procedure: as §1
(Formazan colour is commonly taken as a measure of viable cells.)

Take `CCc1c([Se]c2cccc(C)c2)n(COCCO)c(=S)[nH]c1=O` [Compound 2, 5-ethyl-1-[(2-hydroxyethoxy)methyl]-6-[(3-methylphenyl)selenenyl]-2-thiouracil]: in the series on HIV-1 (HTLV-IIIB strain), the IC50 was determined as 40 nM. Besides, in series [1], the CC50 at 144 h came to 32 µM.
Regarding `CCc1c([Se]c2cc(C)cc(C)c2)n(COCCO)c(=S)[nH]c1=O` [Compound 3, 6-[(3,5-dimethylphenyl)selenenyl]-5-ethyl-1-[(2-hydroxyethoxy)methyl]-2-thiouracil], the IC50 in the series with HIV-1 (HTLV-IIIB strain) was 30 nM. Also, in series [1], the CC50 at 144 h turned out to be 32.5 µM.
The matching figures for `Cc1cccc([Se]c2c(C(C)C)c(=O)[nH]c(=S)n2COCCO)c1` [Compound 5, 1-[(2-hydroxyethoxy)methyl]-5-isopropyl-6-[(3-methylphenyl)-selenenyl]-2-thiouracil]: 38 nM and 31.7 µM.
For `Cc1cc(C)cc([Se]c2c(C(C)C)c(=O)[nH]c(=S)n2COCCO)c1` [Compound 6, 6-[(3,5-dimethylphenyl)selenenyl]-1-[(2-hydroxyethoxy)methyl]-5-isopropyl-2-thiouracil], in that order: 8 nM and 32.4 µM.
The matching figures for `CCc1c([Se]c2cc(C)cc(C)c2)n(COCCO)c(=O)[nH]c1=O` [Compound 9, 6-[(3,5-dimethylphenyl)selenenyl]-5-ethyl-1-[(2-hydroxyethoxy)-methyl]uracil]: 15 nM and 34.5 µM.
Take `Cc1cccc([Se]c2c(C(C)C)c(=O)[nH]c(=O)n2COCCO)c1` [Compound 11, 1-[(2-hydroxyethoxy)methyl]-5-isopropyl-6-[(3-methylphenyl)-selenenyl]uracil]: in the series on HIV-1 (HTLV-IIIB strain), the IC50 was found to be 15 nM. In series [1], the CC50 at 144 h stood at 30.5 µM.
Regarding `Cc1cc(C)cc([Se]c2c(C(C)C)c(=O)[nH]c(=O)n2COCCO)c1` [Compound 12, 6-[(3,5-dimethylphenyl)selenenyl]-1-[(2-hydroxyethoxy)methyl]-5-isopropyluracil], the IC50 with HIV-1 (HTLV-IIIB strain) was determined as 1.9 nM. Further, in series [1], the CC50 at 144 h was determined as 29.1 µM.
Turning to `CCOCn1c([Se]c2ccccc2)c(CC)c(=O)[nH]c1=S` [Compound 15, 1-(ethoxymethyl)-5-ethyl-6-(phenylselenenyl)-2-thiouracil], the IC50 in the series with HIV-1 (HTLV-IIIB strain) stood at 24 nM. In addition, the CC50 at 144 h in series [1] stood at 26.1 µM.
`CCOCn1c([Se]c2cccc(C)c2)c(CC)c(=O)[nH]c1=S` [Compound 16, 1-(ethoxymethyl)-5-ethyl-6-[(3-methylphenyl)selenenyl]-2-thiouracil]: in the series on HIV-1 (HTLV-IIIB strain), the IC50 amounted to 8 nM. In series [1], the CC50 at 144 h worked out at 24.8 µM.
For `CCOCn1c([Se]c2cc(C)cc(C)c2)c(CC)c(=O)[nH]c1=S` [Compound 17, 6-[(3,5-dimethylphenyl)selenenyl]-1-(ethoxymethyl)-5-ethyl-2-thiouracil], the IC50 in the series with HIV-1 (HTLV-IIIB strain) came out at 8 nM. Besides, the CC50 at 144 h in series [1] worked out at 28.8 µM.
`CCOCn1c([Se]c2cc(F)cc(F)c2)c(CC)c(=O)[nH]c1=S` [Compound 18, 6-[(3,5-difluorophenyl)selenenyl]-1-(ethoxymethyl)-5-ethyl-2-thiouracil]: the IC50 in the series with HIV-1 (HTLV-IIIB strain) is 14 nM. For the same compound, in series [1], the CC50 at 144 h came out at 7.8 µM.
The matching figures for `CCc1c([Se]c2ccccc2)n(COCc2ccccc2)c(=S)[nH]c1=O` [Compound 19, 1-[(benzyloxy)methyl)-5-ethyl-6-(phenylselenenyl)-2-thiouracil]: 4 nM and 25.1 µM.
For the compound `CCc1c([Se]c2cccc(C)c2)n(COCc2ccccc2)c(=S)[nH]c1=O` [Compound 20, 1-[(benzyloxy)methyl]-5-ethyl-6-[(3-methylphenyl)selenenyl]-2-thiouracil], the IC50 in the series with HIV-1 (HTLV-IIIB strain) came to 0.8 nM. Also, the CC50 at 144 h in series [1] worked out at 43.4 µM.
Regarding `CCc1c([Se]c2cc(C)cc(C)c2)n(COCc2ccccc2)c(=S)[nH]c1=O` [Compound 21, 1-[(benzyloxy)methyl]-6-[(3,5-dimethylphenyl)selenenyl]-5-ethyl-2-thiouracil], in the series on HIV-1 (HTLV-IIIB strain), the IC50 was 1.7 nM. Besides, the CC50 at 144 h in series [1] stood at 24.1 µM.
For `CCOCn1c([Se]c2ccccc2)c(C(C)C)c(=O)[nH]c1=S` [Compound 22, 1-(ethoxymethyl)-5-isopropyl-6-(phenylselenenyl)-2-thiouracil], in that order: 1.5 nM and 30.1 µM.
Consider `CCOCn1c([Se]c2cccc(C)c2)c(C(C)C)c(=O)[nH]c1=S` [Compound 23, 1-(ethoxymethyl)-5-isopropyl-6-[(3-methylphenyl)selenenyl]-2-thiouracil], for which, in the series with HIV-1 (HTLV-IIIB strain), the IC50 came out at 3.6 nM. Also, the CC50 at 144 h in series [1] came to 30.6 µM.
The matching figures for `CCOCn1c([Se]c2cc(C)cc(C)c2)c(C(C)C)c(=O)[nH]c1=S` [Compound 24, 6-[(3,5-dimethylphenyl)selenenyl]-1-(ethoxymethyl)-5-isopropyl-2-thiouracil]: 1.6 nM and 31.7 µM.
For `CCOCn1c([Se]c2cc(F)cc(F)c2)c(C(C)C)c(=O)[nH]c1=S` [Compound 25, 6-[(3,5-difluorophenyl)selenenyl]-1-(ethoxymethyl)-5-isopropyl-2-thiouracil], in that order: 27 nM and 19.7 µM.
The matching figures for `CC(C)c1c([Se]c2ccccc2)n(COCc2ccccc2)c(=S)[nH]c1=O` [Compound 26, 1-[(benzyloxy)methyl]-5-isopropyl-6-(phenylselenenyl)-2-thiouracil]: 0.7 nM and 30.2 µM.
Consider `Cc1cccc([Se]c2c(C(C)C)c(=O)[nH]c(=S)n2COCc2ccccc2)c1` [Compound 27, 1-[(benzyloxy)methyl]-5-isopropyl-6-[(3-methylphenyl)selenenyl]-2-thiouracil], for which, in the series with HIV-1 (HTLV-IIIB strain), the IC50 is 1.1 nM. Besides, the CC50 at 144 h in series [1] amounted to 30 µM.
The matching figures for `Cc1cc(C)cc([Se]c2c(C(C)C)c(=O)[nH]c(=S)n2COCc2ccccc2)c1` [Compound 28, 1-[(benzyloxy)methyl]-6-[(3,5-dimethylphenyl)selenenyl]-5-isopropyl-2-thiouracil]: 5.4 nM and 30.9 µM.
The matching figures for `CCOCn1c([Se]c2cccc(C)c2)c(CC)c(=O)[nH]c1=O` [Compound 29, 1-(ethoxymethyl)-5-ethyl-6-[(3-methylphenyl)selenenyl]uracil]: 4 nM and 32.1 µM.
The matching figures for `CCOCn1c([Se]c2cc(C)cc(C)c2)c(CC)c(=O)[nH]c1=O` [Compound 30, 6-[(3,5-dimethylphenyl)selenenyl]-1-(ethoxymethyl)-5-etlyluracil]: 0.6 nM and 28.9 µM.
In the case of `CCOCn1c([Se]c2cc(F)cc(F)c2)c(CC)c(=O)[nH]c1=O` [Compound 32, 6-[(3,5-difluorophenyl)selenenyl]-1-(ethoxymethyl)-5-ethyluracil], the IC50 in the series on HIV-1 (HTLV-IIIB strain) came to 6 nM. In addition, in series [1], the CC50 at 144 h is 30.6 µM.
For `CCc1c([Se]c2cccc(C)c2)n(COCc2ccccc2)c(=O)[nH]c1=O` [Compound 37, 1-[(benzyloxy)methyl]-5-ethyl-6-[(3-methylphenyl)selenenyl]uracil], in that order: 0.21 nM and 28.8 µM.
For `CCc1c([Se]c2cc(C)cc(C)c2)n(COCc2ccccc2)c(=O)[nH]c1=O` [Compound 38, 1-[(benzyloxy)methyl]-6-[(3,5-dimethylphenyl)selenenyl]-5-ethyluracil], in that order: 0.08 nM and 31.7 µM.
As to `CCOCn1c([Se]c2ccccc2)c(C(C)C)c(=O)[nH]c1=O` [Compound 48, 1-(ethoxymethyl)-5-isopropyl-6-(phenylselenenyl)uracil], in the series on HIV-1 (HTLV-IIIB strain), the IC50 was 4.2 nM. In addition, in series [1], the CC50 at 144 h stood at 32.5 µM.
The matching figures for `CCOCn1c([Se]c2cccc(C)c2)c(C(C)C)c(=O)[nH]c1=O` [Compound 49, 1-(ethoxymethyl)-5-isopropyl-6-[(3-methylphenyl)selenenyl]uracil]: 0.7 nM and 29.2 µM.
Consider `CCOCn1c([Se]c2cc(C)cc(C)c2)c(C(C)C)c(=O)[nH]c1=O` [Compound 50, 6-[(3,5-dimethylphenyl)selenenyl]-1-(ethoxymethyl)-5-isopropyluracil], for which the IC50 in the series with HIV-1 (HTLV-IIIB strain) is 0.07 nM. In series [1], the CC50 at 144 h is 29.2 µM.
Turning to `CCOCn1c([Se]c2cc(F)cc(F)c2)c(C(C)C)c(=O)[nH]c1=O` [Compound 51, 6-[(3,5-difluorophenyl)selenenyl]-1-(ethoxymethyl)-5-isopropyluracil], the IC50 with HIV-1 (HTLV-IIIB strain) turned out to be 1.2 nM. For the same compound, the CC50 at 144 h in series [1] came out at 27.5 µM.
In the case of `CC(C)c1c([Se]c2ccccc2)n(COCc2ccccc2)c(=O)[nH]c1=O` [Compound 52, 1-[(benzyloxy)methyl]-5-isopropyl-6-(phenylselenenyl)uracil], in the series with HIV-1 (HTLV-IIIB strain), the IC50 came to 0.1 nM. The CC50 at 144 h in series [1] was 29.4 µM.
For `Cc1cccc([Se]c2c(C(C)C)c(=O)[nH]c(=O)n2COCc2ccccc2)c1` [Compound 53, 1-[(benzyloxy)methyl]-5-isopropyl-6-[(3-methylphenyl)selenenyl]uracil], in that order: 0.07 nM and 30.8 µM.
As to `Cc1cc(C)cc([Se]c2c(C(C)C)c(=O)[nH]c(=O)n2COCc2ccccc2)c1` [Compound 54, 1-[(benzyloxy)methyl]-6-[(3,5-dimethylphenyl)selenenyl]-5-isopropyluracil], the IC50 with HIV-1 (HTLV-IIIB strain) came to 0.021 nM. Also, the CC50 at 144 h in series [1] worked out at 30.2 µM.
Regarding `CCCCn1c([Se]c2ccccc2)c(CC)c(=O)[nH]c1=O` [Compound 64, 1-butyl-5-ethyl-6-(phenylselenenyl)uracil], the IC50 in the series on HIV-1 (HTLV-IIIB strain) was 40 nM. For the same compound, in series [1], the CC50 at 144 h was 27.3 µM.
